# According to ChEMBL document CHEMBL4715813, “Allicin-inspired pyridyl disulfides as antimicrobial agents for multidrug-resistant Staphylococcus aureus” (Eur J Med Chem, 2018):
# How the values were obtained:
# Type in all cases: functional
# [1] = test system: Staphylococcus aureus; test: Antibacterial activity against methicillin-susceptible Staphylococcus aureus ATCC 25923 assessed as zone of inhibition by disc diffusion method; also: test concentration or dose not given here
# [2] = test system: Escherichia coli; test: Antibacterial activity against beta-lactam resistant Escherichia coli BAA 2326 assessed as zone of inhibition by disc diffusion method; also: test concentration or dose not given here
# [3] = test system: Staphylococcus aureus; test: Antibacterial activity against vancomycin-intermediate resistant Staphylococcus aureus Mu50 ATCC 700699 assessed as zone of inhibition by disc diffusion method; also: test concentration or dose not given here
# [4] = test system: Enterococcus faecium; test: Antibacterial activity against vancomycin-resistant Enterococcus faecium ATCC 700221 assessed as zone of inhibition by disc diffusion method; also: test concentration or dose not given here
# [5] = test system: Staphylococcus aureus; test: Antibacterial activity against hospital acquired methicillin-resistant Staphylococcus aureus ATCC 43300 assessed as zone of inhibition by disc diffusion method; also: test concentration or dose not given here
# [6] = test system: Bacillus anthracis; test: Antibacterial activity against Bacillus anthracis Sterne 34F2 assessed as zone of inhibition by disc diffusion method
# [7] = test system: Staphylococcus aureus; test: Antibacterial activity against heterogeneous vancomycin-intermediate resistant Staphylococcus aureus Mu3 ATCC 700698 assessed as zone of inhibition by disc diffusion method; also: test concentration or dose not given here
# [8] = test system: Staphylococcus aureus; test: Antibacterial activity against community acquired methicillin-resistant Staphylococcus aureus BAA 1747 assessed as zone of inhibition by disc diffusion method; also: test concentration or dose not given here
# [9] = test system: Acinetobacter baumannii; test: Antibacterial activity against multidrug-resistant Acinetobacter baumannii BAA 1605 assessed as zone of inhibition by disc diffusion method; also: test concentration or dose not given here
# [10] = test system: Pseudomonas aeruginosa; test: Antibacterial activity against Pseudomonas aeruginosa ATCC 15422 assessed as zone of inhibition by disc diffusion method; also: test concentration or dose not given here
# [11] = test system: Staphylococcus epidermidis; test: Antibacterial activity against Staphylococcus epidermidis ATCC 14990 assessed as zone of inhibition by disc diffusion method; also: test concentration or dose not given here
# [12] = test system: Klebsiella pneumoniae; test: Antibacterial activity against multidrug-resistant Klebsiella pneumoniae ATCC 700603 assessed as zone of inhibition by disc diffusion method; also: test concentration or dose not given here
# [13] = test system: Acinetobacter baumannii; test: Antibacterial activity against Acinetobacter baumannii ATCC 19606 assessed as zone of inhibition by disc diffusion method; also: test concentration or dose not given here
# [14] = test system: Enterobacter cloacae; test: Antibacterial activity against Enterobacter cloacae ATCC 23355 assessed as zone of inhibition by disc diffusion method; also: test concentration or dose not given here
# [15] = test system: Enterococcus faecalis; test: Antibacterial activity against vancomycin-susceptible Enterococcus faecalis ATCC 29212 assessed as zone of inhibition by disc diffusion method; also: test concentration or dose not given here
# [16] = test system: Staphylococcus aureus; test: Antibacterial activity against vancomycin-resistant Staphylococcus aureus HIP11714 assessed as zone of inhibition by disc diffusion method; also: test concentration or dose not given here
Structure (SMILES),diameter of the inhibition zone (DIZ) [1] [mm],diameter of the inhibition zone (DIZ) [2] [mm],diameter of the inhibition zone (DIZ) [3] [mm],diameter of the inhibition zone (DIZ) [4] [mm],diameter of the inhibition zone (DIZ) [5] [mm],diameter of the inhibition zone (DIZ) [6] [mm],diameter of the inhibition zone (DIZ) [7] [mm],diameter of the inhibition zone (DIZ) [8] [mm],diameter of the inhibition zone (DIZ) [9] [mm],diameter of the inhibition zone (DIZ) [10] [mm],diameter of the inhibition zone (DIZ) [11] [mm],diameter of the inhibition zone (DIZ) [12] [mm],diameter of the inhibition zone (DIZ) [13] [mm],diameter of the inhibition zone (DIZ) [14] [mm],diameter of the inhibition zone (DIZ) [15] [mm],diameter of the inhibition zone (DIZ) [16] [mm]
CSSc1ccccn1,20,12,13,0,25,48,12,21,15,0,21,0,21,10,23,12
c1ccc(SSC2CCCC2)nc1,9,0,0,0,14,22,11,16,0,0,25,0,0,0,0,0
CCCCSSc1ccccn1,0,0,0,0,0,48,0,0,0,0,22,0,0,9,15,0
c1ccc(SSC2CCCCC2)nc1,11,0,0,0,12,26,18,14,0,0,24,0,0,0,0,0
CCSSc1ccccn1,13,0,0,0,12,50,0,13,12,0,26,0,18,10,15,0
CC(C)SSc1ccccn1,0,0,0,0,0,0,0,0,0,0,13,0,0,0,0,0
O=C(O)CCSSc1ccccn1,16,0,15,0,14,24,15,14,0,0,10,0,0,0,0,21
c1ccc(CSSc2ccccn2)cc1,26,0,23,14,28,38,19,20,0,0,38,0,9,0,14,30
CC(C)CCSSc1ccccn1,0,0,12,0,0,>50,11,0,0,0,>50,0,0,0,0,14
CC(C)CSSc1ccccn1,0,0,0,0,0,50,0,0,0,0,40,0,0,0,0,0
